Results: PubChem BioAssay AID1963867 (Molecular Pharmacology Branch, DTP, NCI, 2024)

Tested on: KRAS-mutant PDC tumor spheroid with HUVEC/MSC, viability
Experiment: Anticancer human tumor 327498-153-R-J2-PDC patient-derived uterine carcinosarcoma cell line growth inhibition [KRAS2]
Conditions: for IC50: curve of first compound; for viability, T/C: stronger effect = lower value
Procedure, shortened: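 Combination screen of spheroid viability in tumor-cell co-cultures with endothelial (HUVEC) and mesenchymal stem cell stroma. Each agent was tested in half-log dilutions, topping at clinical Cmax or at 10 microM without a known Cmax.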

[1] = second compound 0.1 µM, first compound 0.0316 µM
[2] = second compound 0.1 µM, first compound 0.1 µM
[3] = second compound 0.1 µM, first compound 0.316 µM
[4] = second compound 0.1 µM, first compound 1 µM
[5] = second compound 0.1 µM, first compound 3.16 µM
[6] = second compound 0.1 µM, first compound 10 µM
[7] = second compound 0.316 µM, first compound 0.0316 µM
[8] = second compound 0.316 µM, first compound 0.1 µM
[9] = second compound 0.316 µM, first compound 0.316 µM
[10] = second compound 0.316 µM, first compound 1 µM
[11] = second compound 0.316 µM, first compound 3.16 µM
[12] = second compound 0.316 µM, first compound 10 µM
[13] = second compound 1 µM, first compound 0.0316 µM
[14] = second compound 1 µM, first compound 0.1 µM
[15] = second compound 1 µM, first compound 0.316 µM
[16] = second compound 1 µM, first compound 1 µM
[17] = second compound 1 µM, first compound 3.16 µM
[18] = second compound 1 µM, first compound 10 µM
[19] = second compound 3.16 µM, first compound 0.0316 µM
[20] = second compound 3.16 µM, first compound 0.1 µM
[21] = second compound 3.16 µM, first compound 0.316 µM
[22] = second compound 3.16 µM, first compound 1 µM
[23] = second compound 3.16 µM, first compound 3.16 µM
[24] = second compound 3.16 µM, first compound 10 µM
[25] = second compound 10 µM, first compound 0.0316 µM
[26] = second compound 10 µM, first compound 0.1 µM
[27] = second compound 10 µM, first compound 0.316 µM
[28] = second compound 10 µM, first compound 1 µM
[29] = second compound 10 µM, first compound 3.16 µM
[30] = second compound 10 µM, first compound 10 µM
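Also: spheroids exposed to agents for seven days before reading.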
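For viability, T/C in this document: 100% = DMSO vehicle wells so lower means fewer viable cells.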

Structure (SMILES)	IC50 (second compound 0.1 µM) [nM]	IC50 (second compound 0.316 µM) [nM]	IC50 (second compound 1 µM) [nM]	IC50 (second compound 3.16 µM) [nM]	IC50 (second compound 10 µM) [nM]	viability, T/C [1] [%]	viability, T/C [2] [%]	viability, T/C [3] [%]	viability, T/C [4] [%]	viability, T/C [5] [%]	viability, T/C [6] [%]	viability, T/C [7] [%]	viability, T/C [8] [%]	viability, T/C [9] [%]	viability, T/C [10] [%]	viability, T/C [11] [%]	viability, T/C [12] [%]	viability, T/C [13] [%]	viability, T/C [14] [%]	viability, T/C [15] [%]	further results
COC(=O)c1ccc2c(C(=Nc3ccc(N(C)C(=O)CN4CCN(C)CC4)cc3)c3ccccc3)c(O)[nH]c2c1 + CNCc1ccccc1-c1csc(C(C)Nc2nc(C)nc3cc(OC)c(OC)cc23)c1	519	308	153	< 31.6	< 31.6	73.5	69.9	58.6	38.7	10.9	8.59	62.9	61.4	48.8	22.6	0.98	1.62	60.9	53	41.5	viability, T/C [16]: 18.7%; viability, T/C [17]: 0.06%; viability, T/C [18]: 0.11%; viability, T/C [19]: 0.1%; viability, T/C [20]: 0.13%; viability, T/C [21]: 0.08%; viability, T/C [22]: 0.15%; viability, T/C [23]: 0.04%; viability, T/C [24]: 0.11%; viability, T/C [25]: 0.43%; viability, T/C [26]: 0.37%; viability, T/C [27]: 0.36%; viability, T/C [28]: 0.1%; viability, T/C [29]: 1.07%; viability, T/C [30]: 0.16%
COc1cc(Nc2ncc3c(n2)-c2ccc(Cl)cc2C(c2c(F)cccc2OC)=NC3)ccc1C(=O)O + CNCc1ccccc1-c1csc(C(C)Nc2nc(C)nc3cc(OC)c(OC)cc23)c1	< 31.6	< 31.6	< 31.6	< 31.6	< 31.6	16.1	10.8	9.69	10.2	12	12.3	15.6	11.1	10.5	10.8	12.9	12.8	14.7	10.7	8.64	viability, T/C [16]: 8.26%; viability, T/C [17]: 11.9%; viability, T/C [18]: 11.6%; viability, T/C [19]: 0.1%; viability, T/C [20]: 0.06%; viability, T/C [21]: 0.05%; viability, T/C [22]: 0.05%; viability, T/C [23]: 0.06%; viability, T/C [24]: 0.15%; viability, T/C [25]: 0.14%; viability, T/C [26]: 0.13%; viability, T/C [27]: 0.14%; viability, T/C [28]: 0.13%; viability, T/C [29]: 0.63%; viability, T/C [30]: 0.22%
O=C(c1cc(Cc2n[nH]c(=O)c3ccccc23)ccc1F)N1CCN(C(=O)C2CC2)CC1 + CNCc1ccccc1-c1csc(C(C)Nc2nc(C)nc3cc(OC)c(OC)cc23)c1	2060	1810	1750	411	< 31.6	83.4	80.3	82.8	73.6	36.1	19.2	86.6	87.4	76.7	69.5	32.4	19.1	90.8	81.8	81.3	viability, T/C [16]: 66.3%; viability, T/C [17]: 33.2%; viability, T/C [18]: 19.1%; viability, T/C [19]: 57.7%; viability, T/C [20]: 67.8%; viability, T/C [21]: 62%; viability, T/C [22]: 0.7%; viability, T/C [23]: 25.9%; viability, T/C [24]: 0.17%; viability, T/C [25]: 2.32%; viability, T/C [26]: 0.2%; viability, T/C [27]: 1.62%; viability, T/C [28]: 0.19%; viability, T/C [29]: 0.15%; viability, T/C [30]: 1.22%
